≈ marks a conversion by molar mass, not a printed value.
Assays:
Assay type in all cases: functional
P388 = test: Growth inhibition of mouse P388 cells
OVCAR-3 = test: Growth inhibition of human OVCAR-3 cells
SF-295 = test: Growth inhibition of human SF295 cells
[1] = Growth inhibition of human prostate cancer cells; settings: Cancer cell lines
BXPC-3 = test: Growth inhibition of human BXPC3 cells
NCI-H460 = test: Growth inhibition of human NCI-H460 cells
KM-20L2 = test: Growth inhibition of human KM20L2 cells

Compound `COC(=O)c1ccc(O)c(O)c1` [METHYL PROTOCATECHUATE] has an EC50 (P388; read-out: ED50 (the source's name)) of 1.4 µg/mL (≈ 8.33 µM).
`CC[C@H](CC[C@@H](C)C1CC[C@H]2[C@@H]3[C@@H](OC)C=C4C[C@@H](O)CC[C@]4(C)[C@H]3CC[C@]12C)C(C)C` (some centres not stated) [SCHLEICHEOL 1] showed a GI50 (P388) of 14 µg/mL (≈ 31.5 µM), a GI50 (OVCAR-3) of 2.1 µg/mL (≈ 4.72 µM) and a GI50 (SF-295) of 3.2 µg/mL (≈ 7.2 µM). The GI50 [1] was 1.8 µg/mL (≈ 4.05 µM), the GI50 (BXPC-3) was 3.3 µg/mL (≈ 7.42 µM) and the GI50 (NCI-H460) was 1.8 µg/mL (≈ 4.05 µM). The GI50 (KM-20L2) was 2.5 µg/mL (≈ 5.62 µM).
`CC[C@H](CC[C@@H](C)C1CC[C@H]2C3[C@H](OC)C=C4C[C@@H](O)CC[C@]4(C)[C@H]3CC[C@]12C)C(C)C` (some centres not stated) [SCHLEICHEOL 2] gave a GI50 (P388) of 15 µg/mL (≈ 33.7 µM), a GI50 (OVCAR-3) of 2.5 µg/mL (≈ 5.62 µM) and a GI50 (SF-295) of 1.9 µg/mL (≈ 4.27 µM). The GI50 [1] was 1.6 µg/mL (≈ 3.6 µM), the GI50 (BXPC-3) was 1.4 µg/mL (≈ 3.15 µM) and the GI50 (NCI-H460) was 2.2 µg/mL (≈ 4.95 µM). For the same compound, the GI50 (KM-20L2) was 1.2 µg/mL (≈ 2.7 µM).
`CC[C@H](C[C@@H](O)[C@@H](C)[C@H]1CC[C@H]2[C@@H]3[C@@H](OC)C=C4C[C@@H](O)CC[C@]4(C)[C@H]3CC[C@]12C)C(C)C` [SCHLEICHERASTATIN 1] gave a GI50 (P388) of 0.19 µg/mL (≈ 0.412 µM).
Compound `CC[C@H](C[C@@H](O)[C@@H](C)[C@H]1CC[C@H]2[C@@H]3[C@H](OC)C=C4C[C@@H](O)CC[C@]4(C)[C@H]3CC[C@]12C)C(C)C` [SCHLEICHERASTATIN 2] has a GI50 (P388) of 0.72 µg/mL (≈ 1.56 µM).
Work on `CO[C@H]1C=C2C[C@@H](O)CC[C@]2(C)[C@H]2CC[C@]3(C)C([C@H](C)[C@H](O)C[C@@H](C)C(C)C)CC[C@H]3[C@H]12` (some centres not stated) [SCHLEICHERASTATIN 3] yielded a GI50 (P388) of 1.2 µg/mL (≈ 2.69 µM).
`CO[C@H]1C=C2C[C@@H](O)CC[C@]2(C)[C@H]2CC[C@]3(C)C([C@H](C)[C@H](O)C[C@H](C)C(C)C)CC[C@H]3[C@H]12` (some centres not stated) [SCHLEICHERASTATIN 4] showed a GI50 (P388) of 1.2 µg/mL (≈ 2.69 µM).
Work on `CC[C@H](C[C@@H](O)[C@@H](C)C1CC[C@H]2[C@@H]3C(=O)C=C4C[C@@H](O)CC[C@]4(C)[C@H]3CC[C@]12C)C(C)C` (some centres not stated) [SCHLEICHERASTATIN 5] yielded a GI50 (P388) of 0.34 µg/mL (≈ 0.765 µM).
Work on `CC(C)[C@H](C)C[C@@H](O)[C@@H](C)C1CC[C@H]2[C@@H]3C(=O)C=C4C[C@@H](O)CC[C@]4(C)[C@H]3CC[C@]12C` (some centres not stated) [SCHLEICHERASTATIN 6] yielded a GI50 (P388) of 0.78 µg/mL (≈ 1.81 µM).
`CC(C)[C@@H](C)C[C@@H](O)[C@@H](C)C1CC[C@H]2[C@@H]3C(=O)C=C4C[C@@H](O)CC[C@]4(C)[C@H]3CC[C@]12C` (some centres not stated) [SCHLEICHERASTATIN 7] showed a GI50 (P388) of 0.78 µg/mL (≈ 1.81 µM).
